According to patent US7906624B2, “Binding peptidomimetics and uses of the same” (The Trustees of the University of Pennsylvania, priority 2004, dated 2011):

Assays:
[1] = ELISA on biotin-coated plate, bound protein detected with anti-streptavidin antibody-HRP; format: binding; settings: 0-1.1 μg/well on biotin-coated plate
Method: (§1) FIG. 4, panels A and B show data from enzyme-linked immunosorbent assay (ELISA) analysis of recombinant proteins for biotin and Her2-Fc binding ability. Panel A: Streptavidin or ASA was immobilized on biotin-coated plate. Bound protein was detected using an anti-streptavidin antibody-HRP. Panel B: After immobilization of Streptavidin or ASA on biotin-coated plate, Her2-human Fc fusion was added to each plate and bound fusion protein was detected using anti-Her2 antibody and anti-mouse IgG-HRP. The amounts of Streptavidin or ASA fusion protein used in this experiment were: well 1: 0; 2: 0.11 ng; 3: 1.1 ng; 4: 11 ng; 5: 110 ng; 6: 1100 ng.
(§2) The binding of ASA to Biotin and Her2 was determined by a modified ELISA assay. ELISA was performed at room temperature (RT) or 4° C. Purified streptavidin or ASA (0-1.1 μg/well) was immobilized on the biotin-coated ELISA plate (Pierce) for 1 hr at 4° C. in PBS. […] The A450 nm value of the plates was determined using an ELISA reader. Bound streptavidin was detected by the same method using an anti-streptavidin-HRP in PBS (1; 500 dilution; 50 μL/well).
(§3) The ASA fusion protein was tested to determine if it would bind to biotin as well as Her2. […] Bound Her2-Fc was detected by the mouse anti-Her2 antibody (4D5) and the HRP-conjugated anti-mouse IgG antibody.

[2] = system: NR6 cells (control cells); assay: MTT cell proliferation assay, NR6 control cells; format: cell-based; settings: NR6 control cell line
Method: (§4) FIG. 5, panels A and B show inhibition of cell proliferation by ASA. Effects of ASA treatment, or treatments with streptavidin and the peptide AHNP, on the proliferation of T6-17 (Her2 transformed cells, Panel A) or NR6 (control cells, Panel B) were shown; Cell proliferation was measured by the standard MTT assay performed on poly-HEMA plates (for T6-17) or regular tissue culture plates (for NR6).
(§5) T6-17 and NR6 cells were grown in DMEM medium supplemented with 10% heat inactivated fetal calf serum, L-glutamine (2 mM), penicillin (100 U/ml) and streptomycin (100 μg/ml) at 37° C. in a humidified 5% CO2 atmosphere.
(§6) The MTT assay has been used modified method for measuring cell growth. T6-17 cells or NR6 cells were seeded in poly 2-hydroxyethyl methacrylate coated 96 well plates (50 μl/well, 800 cells/well or 1200 cells/well). Then the Streptavidin or ASA protein or the AHNP peptide were (50 μl/well, 0.69 μM or 6.9 μM) and incubate at 37° C. in a humidified 5% CO2 atmosphere for 48 hr. A total of 25 μl of MTT solution (5 mg/ml in PBS) was added to each well, and after 2 hr of incubation at 37° C., 100 μl of the extraction-buffer (20% w/v SDS, 50% N,N-dimethyl formamide, pH 4.7) were added. After an overnight incubation at 37° C., the optical density at […] was measured using an ELISA reader.

[3] = system: T6-17 cells injected subcutaneously into nude mice; assay: T6-17 tumor growth in nude mice; format: in vivo; settings: for reduction of tumor size: day 14
Method: 1 million of T6-17 cells were injected subcutaneously into nude mice to induce the tumor growth. Panel A. Treatment of ASA started from day 0. Panel B. Treatment started on day 2 after tumor were palpable. NCR homozygous athymic (nude) mice (six to eight weeks-old) were purchased from the National Cancer Institute. To induce tumor, 10^6 transformed T6-17 cells were suspended in 100 μl of PBS and injected subcutaneously into the flank of each animal. Animals were maintained in accordance with guidelines of the Institutional Animal Care and Use Committee (IACUC) of the University of […]. Tumor volume was calculated by the formula: π*length*width*Height/6. T6-17 cells were transformed by the over-expression of human Her2/neu […]. […] In one experiment, animals were treated with either streptavidin or ASA (11.25 mg/kg/week). Treatment stared from day 0 and was provided to animals by three subcutaneous injections each week. […] Treatment was also provided to mice by a different administration route in a second experiment, in which intraperitoneal treatment started day 2 after palpable tumor appeared ( 2 cubic mm) (FIG. 6, Panel B). ASA was given at the dose of 15 mg/kg/week, divided into three injections.

[4] = molecular target: T1, Her2-human Fc fusion protein (Homo sapiens, UniProt P04626); assay: ELISA for Her2-Fc binding of protein immobilized on biotin-coated plate; settings: 0-1.1 μg/well immobilized on biotin-coated plate; Her2-Fc 50 ng/well
T1 construct: Her2-human Fc fusion protein that was composed of the ectodomain of Her2 and the Fc of human IgG; purchased Xcyte Therapeutic, Seattle, Wash
Method: as §1, §2, §3

[5] = system: T6-17 cells (Her2 transformed cells); assay: MTT cell proliferation assay, T6-17 cells; format: cell-based
Method: as §4, §5, §6

[6] = in vivo; cited from earlier work

Substance: ASA: Recombinant fusion of AHNP peptide, 11 amino acid linker GGGGSRSNSSS, streptavidin core and C-terminal NSSS linker plus His-tag; forms tetramer
- binding to biotin (ELISA) [1]: bound to biotin in a dose-dependent manner
- inhibitory effect on cell proliferation [2]: Inhibitory effects were not observed
- appearance of palpable tumor prevented until ([3]; 11.25 mg/kg/week, subcutaneous, from day 0): 7 days
- molar excess of AHNP with comparable activity in reducing tumor growth in vivo ([3]; ASA compared with AHNP): ~30 fold
- reduction of tumor size ([3]; 11.25 mg/kg/week, three subcutaneous injections each week, from day 0): 62%
- reduction of tumor size ([3]; intraperitoneal, 15 mg/kg/week in three injections, from day 2 after palpable tumor, vs vehicle control): about 47.6%
- binding to Her2-Fc fusion (ELISA) [4]: able to bind to the Her2-Fc fusion in a dose-dependent manner
- inhibition of cell proliferation ([5]; T6-17 cells, two different concentrations (0.69 μM or 6.9 μM), 48 hr, MTT): 20-50%
- molar concentration of ASA relative to the AHNP peptide necessary to achieve 50% cell growth inhibition in vitro ([5]; in vitro, relative to AHNP peptide): about 10 times

Substance: streptavidin: Tetrameric biotin-binding protein produced by Streptomyces avidinii; recombinant core used as control [reference compound]
- binding to biotin (ELISA) [1]: bound to biotin in a dose-dependent manner
- binding to Her2-Fc fusion (ELISA) [4]: didn't bind to the Her2-human Fc fusion protein even at the highest concentration
- serum half-life [6]: about 12 hours
